{"source": "patent USRE42394E1", "about": "“Fungicidal compositions for the enhancement of turf quality” (Bayer CropScience Inc., priority 1995, dated 2011)", "test_system": "bentgrass cultivar “Penncross”", "assay": "Turf quality and color ratings on fungicide-treated bentgrass field plots (decline from crown and root rot)", "assay_type": "in vivo", "details": "summary statements of the text on the field tests", "description": "Fungicides were evaluated on a one-year-old stand of the bentgrass cultivar “Penncross” planted in Raleigh, N.C., U.S.A. The bentgrass was planted in native soil and maintained under conditions similar to a golf green with a mowing height of 0.635 cm (.25 inches).\nThe fungicides were applied separately and in combination at labelled rates to 1.5 m×1.5 m (5 ft×5 ft) plots of bentgrass prior to evidence of any decline in turf quality due to crown and root rot. A CO2 backpack sprayer was used to apply the fungicide treatments at (30 lbs psi) using TEEJET™ 8004 nozzles to apply 9.5 liters (2.5 gallons) of fungicide dilutions per 93 square meters (1000 sq ft). The fungicides were initially applied and subsequently reapplied according to a 14 day schedule. In some experiments, an electrical pump sprayer was used to apply the treatments at 30 psi using a Teejet 8004 nozzle.\nTurf quality, color and percent disease ratings were recorded weekly, based on a scale from 1-9, with 9 being ideal turf quality and color and 1 being all turf dead. The percent disease ratings were calculated based on the percent of area in each plot showing symptoms of brown patch. Turf quality and color ratings were used as an indicator of the health of the bentgrass and the amount of decline associated with crown and root rot."}
{"smiles": "[Cu+2].c1ccc2c(c1)-c1nc-2nc2[n-]c(nc3nc(nc4[n-]c(n1)c1ccccc41)-c1ccccc1-3)c1ccccc21", "note": "[Pigment Blue 15]", "values": [{"measurement": "turf quality and color, comparison in words", "result": "enhances the activity of the ALIETTE™ and mancozeb in a synergistic interaction"}]}
